Results: PubChem BioAssay AID2060622 (Molecular Pharmacology Branch, DTP, NCI, 2025)
pIC50: −log10 of the molar value. “And” between values parts separate entries of the source, which are not always exact repeats. Equal entries are not always repeated.

Test system: 242566-281-R-J2-PDC complex spheroid viability
Assay: Anticancer human tumor 242566-281-R-J2-PDC patient-derived pancreatic carcinoma cell line growth inhibition [CLK]
Details: for viability, T/C: stronger effect = lower value; active = viability on the fitted dose curve at most 10% of control; inactive = the rest
Source text: A high-throughput screen of multi-cell type tumor spheroids was designed to identify active combinations of […] and targeted small molecules. Complex spheroids include a stromal component modeled by human endothelial cells (HUVEC) and fibroblasts modeled by human mesenchymal stem cells (MSCs). The concentration ranges selected for each drug and investigational agent were based upon clinically achievable concentrations if the clinical Cmax of the agent was known.
Compounds. The drugs and investigational agents: cirtuvivint (SM08502; NSC835563), CC-671 (NSC850746), vemurafenib (NSC761431), tapotoclax (NSC804041), sotorasib (NSC818433), adagrasib (NSC831453), MRTX-1133 (NSC836407), BAY2416964 (NSC825713), copanlisib (NSC816437), inavolisib (NSC800729), abemaciclib (NSC768073), osimertinib (NSC779217), entinostat (NSC756642), eltanexor (KPT-8602, NSC794443), venetoclax (NSC766270), ceralasertib (NSC777638), bortezomib (NSC756655), olaparib (NSC753686), talazoparib (NSC767125), alisertib (NSC759677), peposertib (NSC802822), gemcitabine (NSC613327), 5-fluorouracil (NSC19893), SN-38 (NSC673596), oxaliplatin (NSC266046), paclitaxel (NSC125973), and doxorubicin (NSC123127), were obtained from the National Cancer Institute (NCI) Developmental Therapeutics Program Chemical Repository. The FDA-approved anticancer drug set is available from the Developmental Therapeutics Program at https://dtp.cancer.gov/organization/dscb/obtaining/available plates.htm. […] The stock solutions were prepared in dimethyl sulfoxide (DMSO, Sigma-Aldrich, St. Louis, MO, cat. D2650), except for the platinum complexes which were prepared in saline (Quality Biological, Gaithersburg, MD, cat. 114-055-101), at 800-fold the tested concentration and stored at -70 degrees C prior to their use. All drugs and investigational agents were tested over a range starting from a high concentration at or near the clinical Cmax and decreasing in half-log increments. If the clinical Cmax for an agent had not been determined, the highest concentration tested was 10 microM.
Cell Culture. All cells were maintained in an incubator at 37 degrees C and 5% CO2 with 95% humidity. The PDC lines were cultured according to standard operating procedures established by the NCI PDMR. Briefly, all PDCs were thawed and cultured in Matrigel-coated flasks prepared with a working solution of 1X Ham's F-12 nutrient mix, without supplementation (Invitrogen, Waltham, MA, cat. 11765054), 100 U/mL penicillin-streptomycin (Invitrogen, cat. 15140122), and 2.5% Matrigel (Corning Inc., Corning, NY, cat. 354248) for the first three passages. The 947758-054-R-J2-PDC line was cultured in 6B/Colon 1A media, which includes advanced DMEM/F-12 (Thermo Fisher Scientific, cat. 12634028), 10 mM HEPES (Thermo Fisher Scientific, cat. 15630080), 1X GlutaMAX supplement (Thermo Fisher Scientific, cat. 35050061), 0.1 mg/mL primocin (InvivoGen, cat. ant-pm-2), 10% defined fetal bovine serum, heat inactivated (HyClone Laboratories Inc., cat. SH30070.03HI), 1.25 mM N-Acetyl-L-cysteine (Sigma-Aldrich, cat. A9165), 10 mM nicotinamide (Sigma-Aldrich, cat. N0636), 1X B-27 supplement (Thermo Fisher Scientific, cat. 17504044), 1X N-2 supplement (Thermo Fisher Scientific, cat. 17502048), and 10 microM Y-27632 dihydrochloride (Tocris Bioscience, cat. 1254). The 876862-298-R-J1-PDC was cultured in 6E media, which includes all 6B/Colon 1A media components plus 50% L-WRN conditioned media (ATCC, cat. CRL-3276), 50 ng/mL recombinant human EGF recombinant protein (hEGF; Thermo Fisher Scientific, cat. PHG0311), 10 ng/mL recombinant human fibroblast growth factor 10 (hGFG-10; PeproTech, cat. 100-26), 1 ng/mL recombinant human fibroblast growth factor 2 (hFGF-2; PeproTech, cat. 100-18B), and 1 µM prostaglandin E2 (PGE2; Tocris, cat. 2296). The 227483-062-R1-J1-PDC line was cultured in Panc media, containing all 6E components except hFGF-2, with the addition of 500 nM SB-431542 (Selleckchem, cat. S1067) and 10 nM gastrin (Tocris, cat. 3006). […]
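Also: spheroids exposed to compounds for 7 days before readout.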
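For viability, T/C in this document: 100% = DMSO vehicle control wells.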

CNC(=O)c1ccc(Nc2nc(OC3CCCC3)c3c(-c4ccc5nc(C)oc5c4)c[nH]c3n2)c(OC)c1
inactive: viability, T/C (compound 1 µM) 69.1% [middle of 12 runs] | viability, T/C (compound 3.16 µM) 61% [middle of 12 runs] | viability, T/C (compound 10 µM) 55.9% [middle of 12 runs]
< 5.00 and 5.58: pIC50 (compound alone, run of 08/01/2023)

COc1ccc([C@@H](O)c2cc(-c3ncnc4cc(N5CCOCC5)ccc34)c(F)cc2Cl)nn1
< 5.00: pIC50 (curve of compound)
inactive: viability, T/C (compound 0.0316 µM) 112% and 89.3% | viability, T/C (compound 0.1 µM) 111% and 92.2% | viability, T/C (compound 0.316 µM) 96.7% and 104% | viability, T/C (compound 1 µM) 83.7% and 91.3% | viability, T/C (compound 3.16 µM) 77.1% and 92.4% | viability, T/C (compound 10 µM) 48.2% and 71.3%

COc1cccc2c1C(=O)c1c(O)c3c(c(O)c1C2=O)CC(O)(C(=O)CO)CC3OC1CC(N)C(O)C(C)O1 (stereo not given)
7.56% and 20.2%: viability, T/C (compound 1 µM)
inactive: viability, T/C (compound 0.0316 µM) 66.3% and 79% | viability, T/C (compound 0.1 µM) 41.5% and 64.7% | viability, T/C (compound 0.316 µM) 15.3% and 35.8%
active: viability, T/C (compound 3.16 µM) 1.88% and 6.69% | viability, T/C (compound 10 µM) 1.33% and 1.37%
7.18 and 6.74: pIC50 (curve of compound)

C=CC(=O)N1CCN(c2nc(=O)n(-c3c(C)ccnc3C(C)C)c3nc(-c4c(O)cccc4F)c(F)cc23)C(C)C1 (stereo not given) + CN1CCN(c2cc(C(=O)Nc3cc4cc(-c5cnn(C)c5)ccc4cn3)ccn2)CC1
< 5.00: pIC50 (curve of first compound, second compound 0.0316 µM) | pIC50 (curve of first compound, second compound 0.1 µM)
active: viability, T/C (second compound 1 µM, first compound 0.0316 µM) 5.06% | viability, T/C (second compound 1 µM, first compound 0.1 µM) 5.31% | viability, T/C (second compound 1 µM, first compound 0.316 µM) 6.97% | viability, T/C (second compound 1 µM, first compound 1 µM) 9.26% | viability, T/C (second compound 1 µM, first compound 3.16 µM) 11.1% | viability, T/C (second compound 1 µM, first compound 10 µM) 6.36% | viability, T/C (second compound 3.16 µM, first compound 0.0316 µM) 7.67% | viability, T/C (second compound 3.16 µM, first compound 0.1 µM) 8.25% | viability, T/C (second compound 3.16 µM, first compound 0.316 µM) 11.1% | viability, T/C (second compound 3.16 µM, first compound 1 µM) 11.7% | viability, T/C (second compound 3.16 µM, first compound 3.16 µM) 11.6% | viability, T/C (second compound 3.16 µM, first compound 10 µM) 8.7% | viability, T/C (second compound 10 µM, first compound 0.0316 µM) 2.18% | viability, T/C (second compound 10 µM, first compound 0.1 µM) 2.58% | viability, T/C (second compound 10 µM, first compound 0.316 µM) 2.81% | viability, T/C (second compound 10 µM, first compound 1 µM) 4.46% | viability, T/C (second compound 10 µM, first compound 3.16 µM) 4.9% | viability, T/C (second compound 10 µM, first compound 10 µM) 2.7%
inactive: viability, T/C (second compound 0.0316 µM, first compound 0.0316 µM) 113% | viability, T/C (second compound 0.0316 µM, first compound 0.1 µM) 105% | viability, T/C (second compound 0.0316 µM, first compound 0.316 µM) 102% | viability, T/C (second compound 0.0316 µM, first compound 1 µM) 117% | viability, T/C (second compound 0.0316 µM, first compound 3.16 µM) 103% | viability, T/C (second compound 0.0316 µM, first compound 10 µM) 72.9% | viability, T/C (second compound 0.1 µM, first compound 0.0316 µM) 106% | viability, T/C (second compound 0.1 µM, first compound 0.1 µM) 94.3% | viability, T/C (second compound 0.1 µM, first compound 0.316 µM) 81.6% | viability, T/C (second compound 0.1 µM, first compound 1 µM) 109% | viability, T/C (second compound 0.1 µM, first compound 3.16 µM) 105% | viability, T/C (second compound 0.1 µM, first compound 10 µM) 67.5% | viability, T/C (second compound 0.316 µM, first compound 0.0316 µM) 47.2% | viability, T/C (second compound 0.316 µM, first compound 0.1 µM) 47.3% | viability, T/C (second compound 0.316 µM, first compound 0.316 µM) 40.8% | viability, T/C (second compound 0.316 µM, first compound 1 µM) 45.2% | viability, T/C (second compound 0.316 µM, first compound 3.16 µM) 48.2% | viability, T/C (second compound 0.316 µM, first compound 10 µM) 23.4%
> 7.50: pIC50 (curve of first compound, second compound 0.316 µM) | pIC50 (curve of first compound, second compound 1 µM) | pIC50 (curve of first compound, second compound 3.16 µM) | pIC50 (curve of first compound, second compound 10 µM)
